Results taken from article PMC10403075, “Short hydrocarbon stapled ApoC2-mimetic peptides activate lipoprotein lipase and lower plasma triglycerides in mice” (Frontiers in Cardiovascular Medicine, 2023).
Read-outs that look alike come from different tables or passages of the source. Residues, ends and D or L forms follow the SMILES beside them.

Experiments:
Proteinase K = Proteinase K (Parengyodontium album, UniProt P06873); type: in vitro ADME
Protocol: (§1) Peptides (0.1 mM) were incubated at 37°C in 20 mM ammonium bicarbonate buffer at pH 8.2, with 10 ug/ml trypsin or […] Proteinase K. To test resistance to Pepsin, peptides (0.1 mM) were incubated with Pepsin (3 mg/ml) in 0.02M acetate buffer (pH 2). The amount of intact peptide was monitored over time by Matrix-assisted laser desorption/ionization time-of-flight (MALDI-TOF) on a Bruker Autoflex III instrument (Bruker Optics, Inc., USA). Internal standards (Bombesin, ACTH (1–17), ACTH (18–39) and Insulin) were used to quantify the relative amount of peptide in each sample.

hAPOC3-tg mice = settings: ApoC3 transgenic mice; cited from earlier work
Text: (§2) We recently developed a bi-helical ApoC2 mimetic peptide called D6PV that contains 41 amino acids ([16]). ApoC2 mimetic peptides could potentially be used as a treatment for pancreatitis in patients with genetic APOC2 deficiency and for the prevention of cardiovascular disease in patients with moderate elevations in plasma triglycerides ([1]). […] Except for one amino acid substitution, the secon ...

Apoc2^h/h mice [1] = settings: ApoC2 hypomorphic mice, single intravenous injection, within a few hours; cited from earlier work
Text: as §2

LPL from bovine milk [2] = target: T1, LPL from bovine milk (Bos taurus, UniProt P11151); test: In vitro LPL activity assay (NEFA generation, ApoC2-deficient plasma substrate); type: biochemical
T1 construct: LPL from bovine milk (Sigma-Aldrich); purchased Sigma-Aldrich; host or cells: bovine milk (natural source)
T1 sequence (P11151 29-478): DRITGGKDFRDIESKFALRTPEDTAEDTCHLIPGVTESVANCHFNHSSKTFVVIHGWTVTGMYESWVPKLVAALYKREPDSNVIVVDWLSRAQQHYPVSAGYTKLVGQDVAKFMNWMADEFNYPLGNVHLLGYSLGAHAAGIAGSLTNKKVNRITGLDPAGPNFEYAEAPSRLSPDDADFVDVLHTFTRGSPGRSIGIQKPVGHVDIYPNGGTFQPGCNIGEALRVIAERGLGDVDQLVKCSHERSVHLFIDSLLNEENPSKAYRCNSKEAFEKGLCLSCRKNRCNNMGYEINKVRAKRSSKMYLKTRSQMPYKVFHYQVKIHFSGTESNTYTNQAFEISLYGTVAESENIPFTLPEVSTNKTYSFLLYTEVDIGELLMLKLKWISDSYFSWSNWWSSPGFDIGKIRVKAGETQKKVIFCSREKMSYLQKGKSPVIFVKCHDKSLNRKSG
Protocol: (§3) LPL activity was determined by measuring the generation of non-esterified fatty acids (NEFA). In a 96-well plate, 0–2 µM of an ApoC2 mimetic peptide, 0.83 nM of LPL from bovine milk (Sigma-Aldrich), ApoC2-deficient ethylenediaminetetraacetic acid (EDTA)-plasma (diluted with PBS to a final TG concentration of 0.67 mg/dl), 2 IU/ml heparin, 0.2% fatty acids free bovine serum albumin (BSA) (ICN Biomedicals), and PBS (Life Technologies) were combined in a final reaction volume of 50 μl. The reaction mixture was pre-incubated on ice for 30 min and incubated at 37°C for 1 h. NEFA were measured with a coupled enzyme reaction (Wako Diagnostics) in a Synergy H1 microplate reader (BioTek, USA).

human LPL = target: T2, human LPL (Homo sapiens, UniProt P06858); test: Isothermal titration calorimetry LPL activity assay in pooled human plasma; type: biochemical; settings: normolipidemic pooled human EDTA-plasma nearly undiluted, 1 nM human LPL injections, 25°C, initial rate, on top of endogenous activators, triplicates
T2 sequence (P06858 28-475): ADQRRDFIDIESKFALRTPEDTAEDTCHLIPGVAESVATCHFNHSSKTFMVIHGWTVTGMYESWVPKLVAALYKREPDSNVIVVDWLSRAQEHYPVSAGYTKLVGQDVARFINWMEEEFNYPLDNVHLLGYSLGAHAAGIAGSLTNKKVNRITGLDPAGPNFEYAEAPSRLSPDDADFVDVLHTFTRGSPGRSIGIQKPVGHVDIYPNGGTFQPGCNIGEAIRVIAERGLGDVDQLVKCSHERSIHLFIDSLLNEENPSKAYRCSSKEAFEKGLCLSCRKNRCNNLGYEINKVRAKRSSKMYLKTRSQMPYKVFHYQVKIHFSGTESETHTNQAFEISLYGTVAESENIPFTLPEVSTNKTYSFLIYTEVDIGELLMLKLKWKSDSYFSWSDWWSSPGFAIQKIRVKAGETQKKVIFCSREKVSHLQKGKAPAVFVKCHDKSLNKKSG
Protocol: Isothermal titration calorimetry (ITC) measurements, which depends upon the initial rate of reaction, were performed to assess peptide activation of LPL in nearly undiluted human plasma as previously described ([22], [23]). Peptides in 20 mM TRIS, pH 8.2 at the indicated concentrations were added to a normolipidemic EDTA-plasma pool. The reaction was initiated by three sequential injections of 1 nM human LPL. The heat of the reaction was monitored with the iTC200 calorimeter (GE Healthcare, USA) and the initial reaction rates at 25°C were converted into relative activity units.

LPL from bovine milk [3] = target: T1, LPL from bovine milk; test: In vitro LPL activation assay after pepsin treatment; type: biochemical; settings: 1 h pepsin at pH 2, then pH neutralised; compared with untreated peptide, area-under-the-curve, triplicates
Protocol: as §3, §1
Figure 4 Peptide proteolysis resistance. […]

Apoc2^h/h mice [4] = test: Plasma lipids in ApoC2-hypomorphic mice after peptide injection; type: in vivo, mouse; settings: single IP 1 umole/kg, n = 4
Protocol: ApoC2–hypomorphic mice (Apoc2^h/h) ([25]) and human ApoC3-transgenic (hAPOC3-tg) mice ([26]) were fed a regular rodent chow diet (NIH-31 chow diet: Zeigler Brothers Inc.). Peptides dissolved in 20 mM TRIS (pH 8.2) or vehicle control were injected intraperitoneally or intravenously at the indicated concentrations. Blood samples were collected from the retro-orbital sinus with a heparinized capillary tube. Whole blood was centrifuged at 1,000 g for 20 min at 4°C to obtain plasma. All animal procedures were approved by the National Heart, Lung, and Blood Institute Animal Care and Use Committee (protocol #H-0050).

trypsin = test: Peptide proteolysis resistance, trypsin; type: in vitro ADME; settings: peptide 0.1 mM, 10 ug/ml trypsin, 20 mM ammonium bicarbonate pH 8.2, 37°C, MALDI-TOF with internal standards, first time point 3 h, triplicates
Protocol: as §1

Pepsin = test: Peptide proteolysis resistance, pepsin; type: in vitro ADME; settings: peptide 0.1 mM, pepsin 3 mg/ml, 0.02M acetate buffer pH 2, 1 h, MALDI-TOF with internal standards, triplicates
Protocol: as §1

[5] = Circular dichroism spectroscopy; type: physicochemical; settings: CD 190-250 nm, 0.1 cm cell, calculated from spectrum
Protocol: Circular dichroism (CD) spectra were acquired on a Chirascan Q100 spectrometer. CD spectra were recorded in the190–250 nm range, using a 0.1 cm quartz cell and analyzed with Bettsele® on-line software ([24]).

[6] = DMPC vesicle clearance (solubilization) assay; type: physicochemical; settings: peptide 0-100 µM in 20 mM TRIS pH 8.2, DMPC vesicles 0.5 mg/ml in PBS, absorbance 660 nm, 1 h, 24°C
Protocol: Dimyristoyl Phosphatidyl Choline (DMPC) (Avanti 850345C) vesicles were made by sonication (0.5 mg/ml) in phosphate buffer saline (PBS). Peptides (0, 25, 50 and 100 µM) in 20 mM TRIS, pH 8.2 were added to DMPC vesicles (0.5 mg/ml) prepared by sonication in PBS and turbidity was monitored in a Victor^3 plate reader (Perkin Elmer, USA) by monitoring absorbance at 660 nm for 1 h at 24°C. Samples were shaken at 300 RPM. Absorbance over time was plotted and areas-under-the-curve (AOC) were calculated. PBS was used as a negative control sample and Triton X-100 at a final concentration of 1% (w/v) was used as positive control.

Sequence of Proteinase K (P06873 106-384): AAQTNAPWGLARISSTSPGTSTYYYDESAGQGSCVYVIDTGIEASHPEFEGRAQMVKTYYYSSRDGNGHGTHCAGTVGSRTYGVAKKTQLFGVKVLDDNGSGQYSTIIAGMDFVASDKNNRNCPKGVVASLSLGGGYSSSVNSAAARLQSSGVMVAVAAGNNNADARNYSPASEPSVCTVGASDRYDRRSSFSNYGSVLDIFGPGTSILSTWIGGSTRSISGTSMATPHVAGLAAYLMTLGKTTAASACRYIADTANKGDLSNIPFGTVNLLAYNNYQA

| Compound | intact full-length peptide after Proteinase K incubation (Proteinase K; pH 8.2) | plasma TG (hAPOC3-tg mice) | plasma TG (Apoc2^h/h mice [1]) | EC50 (LPL from bovine milk [2]) [nM] | LPL activity by isothermal titration calorimetry (human LPL) | ability to activate LPL after pepsin treatment (LPL from bovine milk [3]) | reduction in plasma triglycerides (Apoc2^h/h mice [4]; 3 h after injection) [%] | plasma cholesterol (Apoc2^h/h mice [4]) | intact full-length peptide after trypsin incubation (trypsin) | intact full-length peptide after pepsin incubation (Pepsin) | alpha-helical secondary structure by CD [5] [%] | DMPC vesicle solubilization [6] | intact full-length peptide after Proteinase K incubation (Proteinase K; peptide 0.1 mM, 16 ug/kg Proteinase K, 20 mM ammonium bicarbonate pH 8.2, 37°C, MALDI-TOF with internal standards, first time point 3 h, triplicates) | in vitro LPL activation, dose response (result in words) (LPL from bovine milk [2]; 0-2 µM peptide, bovine milk LPL, ApoC2-deficient plasma substrate, 37°C 1 h, NEFA read-out, triplicates) |
| --- | --- | --- | --- | --- | --- | --- | --- | --- | --- | --- | --- | --- | --- | --- |
| CC[C@H](C)[C@H](NC(=O)CNC(=O)[C@@H](NC(=O)[C@H](Cc1ccc(O)cc1)NC(=O)[C@@H](NC(=O)[C@H](CO)NC(=O)[C@@H](NC(=O)[C@H](C)NC(=O)[C@@H]1CCCN1C(=O)[C@@H](NC(=O)[C@H](Cc1ccccc1)NC(=O)[C@H](CCCCN)NC(=O)[C@H](CCC(=O)O)NC(=O)[C@H](Cc1ccc(O)cc1)NC(=O)[C@H](CC(C)C)NC(=O)[C@H](CC(=O)O)NC(=O)[C@H](CCCNC(=N)N)NC(=O)[C@H](CC(C)C)NC(=O)[C@H](CCCCN)NC(=O)[C@H](CCC(=O)O)NC(=O)[C@H](Cc1ccccc1)NC(=O)[C@@H](NC(=O)[C@H](CCC(=O)O)NC(=O)[C@H](CCCCN)NC(=O)[C@H](CC(C)C)NC(=O)[C@H](Cc1ccc(O)cc1)NC(=O)[C@@H](N)CC(=O)O)C(C)C)[C@@H](C)O)C(C)C)[C@@H](C)O)[C@@H](C)O)C(=O)N[C@@H](Cc1ccccc1)C(=O)N[C@H](C(=O)N[C@@H](CC(=O)O)C(=O)N[C@@H](CCC(N)=O)C(=O)N[C@H](C(=O)N[C@@H](CC(C)C)C(=O)N[C@@H](CO)C(=O)N[C@H](C(=O)N[C@@H](CC(C)C)C(=O)N[C@@H](CCCCN)C(=O)NCC(=O)N[C@@H](CCC(=O)O)C(=O)N[C@@H](CCC(=O)O)C(=O)O)C(C)C)C(C)C)[C@@H](C)O [D6PV, reference compound] (H-DYLKEVFEKLRDLYEKFTPAVSTYTGIFTDQVLSVLKGEE-OH; N-terminus assumed) | essentially no intact peptide was detected | lowered TG | markedly lowered TG | 107 | doubled the activity of LPL | almost completely inactive | > 90 | lowered plasma cholesterol | essentially no intact peptide was detected | No intact peptide was observed | 42 | – | – | – |
| CCCC[C@H](NC(=O)[C@H](C)NC(C)=O)C(=O)N[C@]1(C)CCCCCCC=CCCCC2(CCCC=CCCCCCC[C@@](C)(C(=O)N[C@@H](CCCCN)C(=O)N(C)CC(=O)N[C@H](CCC(=O)O)C(=O)N[C@H](CCC(=O)O)C(=O)O)NC(=O)[C@H](C(C)C)NC(=O)[C@H](CO)NC(=O)[C@H](CC(C)C)NC(=O)[C@H](C(C)C)NC(=O)[C@H](CCC(N)=O)NC(=O)[C@H](CC(=O)O)NC2=O)NC(=O)[C@H](Cc2ccccc2)NC(=O)[C@H]([C@@H](C)CC)NC(=O)CNC(=O)[C@H]([C@@H](C)O)NC(=O)[C@H](Cc2ccc(O)cc2)NC(=O)[C@H]([C@@H](C)O)NC1=O (stereo partly drawn) [SP2] | – | – | – | – | – | fully active | – | – | resistant to both proteases | resistant to proteolysis | 46 | most effective in solubilizing DMPC vesicles | resistant to both proteases | slightly more potent than SP1 |
